The term IC50 denotes the concentration that inhibits the measured activity by half.

Some results are limits rather than exact numbers.

In one data set the test system is MDA-MB-231. Description: Antiproliferative activity against human MDA-MB-231 cells assessed as reduction in cell viability measured after 48 hrs by MTT assay. As to conditions: MDA-MB-231, 48 h. Format: functional, cell-based. Background: Tetrazolium dyes change colour on reduction, which living cells bring about.
For a further data set, the system named is A549. Kind of data set: cells. As to conditions: Homo sapiens, A549, 48 h.
Another data set deals with HT-29. Description: cells. Conditions: Homo sapiens, HT-29, 72 h.
Data set [1] has as its system Plasmodium falciparum. Description: Antimalarial activity against Plasmodium falciparum K1 assessed as inhibition of malarial growth. It is filed as functional, organism-based.
For data set [2], the system named is Plasmodium falciparum. Kind of data set: Antiplasmodial activity against Plasmodium falciparum NF54 assessed as reduction in malarial growth. It is filed as functional, organism-based.
Data set [3] concerns Plasmodium falciparum. Description: Antimalarial activity against Plasmodium falciparum NF54 assessed as reduction in cell growth. It is filed as functional, organism-based.
The nature of data set [4]: Cytotoxicity against African green monkey Vero cells. As to conditions: chlorocebus sabaeus, read-out: TC50 (the source's name). It is filed as toxicity, cell-based.
The next data set has as its system KB. Kind of data set: Antiproliferative activity against human KB cells assessed as reduction in cell viability incubated for 48 hrs by MTT assay. Format: functional, cell-based.

As to `C[C@@H]1CC[C@H]2[C@@H](C)C(OCCN/C(=N/c3ccc(Cl)cc3Cl)NCCOC3O[C@@H]4O[C@]5(C)CC[C@@H]6[C@@H](C)CC[C@H]([C@@H]3C)[C@]46OO5)O[C@H]3O[C@@]4(C)CC[C@@H]1[C@]32OO4` (some centres undefined), the IC50 amounted to 2080 nM in the data set on MDA-MB-231, 640 nM with A549 and 50 nM in the data set on HT-29.

As to `C[C@@H]1CC[C@H]2[C@@H](C)C(CCOCc3ccc(COCCC4O[C@H]5O[C@@]6(C)CC[C@H]7[C@H](C)CC[C@@H]([C@H]4C)[C@@]57OO6)cc3)O[C@H]3O[C@@]4(C)CC[C@@H]1[C@]32OO4` (some centres undefined), the IC50 in the data set on Plasmodium falciparum [1] came out at 2.4 nM.

For `C[C@@H]1CC[C@H]2[C@@H](C)C(OCCN/C(=N/c3ccc(C(F)(F)F)cc3)NCCOC3O[C@@H]4O[C@]5(C)CC[C@@H]6[C@@H](C)CC[C@H]([C@@H]3C)[C@]46OO5)O[C@H]3O[C@@]4(C)CC[C@@H]1[C@]32OO4` (some centres undefined), the IC50 in the data set with MDA-MB-231 was 1180 nM; in the data set on A549 it was 680 nM; with HT-29, 60 nM.

As for `C=C(CC1O[C@H]2O[C@@]3(C)CC[C@H]4[C@H](C)CC[C@@H]([C@H]1C)[C@@]24OO3)CC1O[C@H]2O[C@@]3(C)CC[C@H]4[C@H](C)CC[C@@H]([C@H]1C)[C@@]24OO3` (some centres undefined), the concentration for half-maximal inhibition (IC50) with Plasmodium falciparum [2] and in the data set with Plasmodium falciparum [3] was 24 nM each time.

Take `C[C@@H]1CC[C@H]2[C@@H](C)C(CC(=O)c3cccc(C(=O)CC4O[C@H]5O[C@@]6(C)CC[C@H]7[C@H](C)CC[C@@H]([C@H]4C)[C@@]57OO6)c3)O[C@H]3O[C@@]4(C)CC[C@@H]1[C@]32OO4` (stereo in doubt): in the data set on Plasmodium falciparum [2], the concentration for half-maximal inhibition (IC50) was 1.9 nM.

`CCN(CC)CCCC(C)Nc1ccnc2cc(Cl)ccc12` (centres undefined) [CHLOROQUINE]: the CC50 in data set [4] was > 14900 nM.

Regarding `C[C@@H]1CC[C@H]2[C@@H](C)C(CC#Cc3cccc(C#CCC4O[C@H]5O[C@@]6(C)CC[C@H]7[C@H](C)CC[C@@H]([C@H]4C)[C@@]57OO6)c3)O[C@H]3O[C@@]4(C)CC[C@@H]1[C@]32OO4` (some centres undefined), in the data set with Plasmodium falciparum [2], the IC50 stood at 36 nM.

On to `C[C@@H]1CC[C@H]2[C@@H](C)C(CC(COC(=O)c3cc(=O)oc4cc(N(C)C)ccc34)CC3O[C@H]4O[C@@]5(C)CC[C@H]6[C@H](C)CC[C@@H]([C@H]3C)[C@@]46OO5)O[C@H]3O[C@@]4(C)CC[C@@H]1[C@]32OO4` (some centres undefined), for which the IC50 with Plasmodium falciparum [3] is 2.4 nM.

Take `C[C@@H]1CC[C@H]2[C@@H](C)C(OCCN/C(=N/c3ccc(Cl)cc3)NCCOC3O[C@@H]4O[C@]5(C)CC[C@@H]6[C@@H](C)CC[C@H]([C@@H]3C)[C@]46OO5)O[C@H]3O[C@@]4(C)CC[C@@H]1[C@]32OO4` (some centres undefined): the IC50 in the data set on MDA-MB-231 stood at 1260 nM; in the data set on A549, 980 nM; in the data set on HT-29, 100 nM.

With `C[C@@H]1CC[C@H]2[C@@H](C)C(CC(O)(CCS(=O)(=O)c3ccc(C(=O)O)cc3)CC3O[C@H]4O[C@@]5(C)CC[C@H]6[C@H](C)CC[C@@H]([C@H]3C)[C@@]46OO5)O[C@H]3O[C@@]4(C)CC[C@@H]1[C@]32OO4` (some centres undefined), the IC50 in the data set on Plasmodium falciparum [3] turned out to be 2.4 nM.

With `C[C@@H]1CC[C@H]2[C@@H](C)C(CC(COS(=O)(=O)c3cccc4c(N(C)C)cccc34)CC3O[C@H]4O[C@@]5(C)CC[C@H]6[C@H](C)CC[C@@H]([C@H]3C)[C@@]46OO5)O[C@H]3O[C@@]4(C)CC[C@@H]1[C@]32OO4` (some centres undefined), the IC50 in the data set on Plasmodium falciparum [3] was 3.9 nM.

Regarding `C[C@@H]1CC[C@H]2[C@@H](C)C(CC(=O)CC3O[C@H]4O[C@@]5(C)CC[C@H]6[C@H](C)CC[C@@H]([C@H]3C)[C@@]46OO5)O[C@H]3O[C@@]4(C)CC[C@@H]1[C@]32OO4` (some centres undefined), the IC50 with Plasmodium falciparum [3] was 0.91 nM.

Regarding `C[C@@H]1CC[C@H]2[C@@H](C)C(CC(O)(COC(=O)CCC(=O)O)CC3O[C@H]4O[C@@]5(C)CC[C@H]6[C@H](C)CC[C@@H]([C@H]3C)[C@@]46OO5)O[C@H]3O[C@@]4(C)CC[C@@H]1[C@]32OO4` (some centres undefined), in the data set on Plasmodium falciparum [3], the IC50 stood at 3 nM.

For `C[C@@H]1CC[C@H]2[C@@H](C)C(CC3(CC4O[C@H]5O[C@@]6(C)CC[C@H]7[C@H](C)CC[C@@H]([C@H]4C)[C@@]57OO6)CO3)O[C@H]3O[C@@]4(C)CC[C@@H]1[C@]32OO4` (some centres undefined), the IC50 in the data set on Plasmodium falciparum [3] came to 2.8 nM.

Regarding `C[C@@H]1CC[C@H]2[C@@H](C)C(/C=C\c3ccc(/C=C\C4O[C@H]5O[C@@]6(C)CC[C@H]7[C@H](C)CC[C@@H]([C@H]4C)[C@@]57OO6)cc3)O[C@H]3O[C@@]4(C)CC[C@@H]1[C@]32OO4` (some centres undefined), the half-maximal inhibitory concentration (IC50) in the data set with Plasmodium falciparum [2] came out at 18 nM.

With `C[C@@H]1CC[C@H]2[C@@H](C)C(/C=C/c3cccc(/C=C/C4O[C@@H]5O[C@]6(C)CC[C@@H]7[C@@H](C)CC[C@H]([C@@H]4C)[C@]57OO6)c3)O[C@H]3O[C@@]4(C)CC[C@@H]1[C@]32OO4` (some centres undefined), the IC50 in the data set with Plasmodium falciparum [2] stood at 77 nM.

Take `C[C@@H]1CC[C@H]2[C@@H](C)C(CC(O)(CO)CC3O[C@H]4O[C@@]5(C)CC[C@H]6[C@H](C)CC[C@@H]([C@H]3C)[C@@]46OO5)O[C@H]3O[C@@]4(C)CC[C@@H]1[C@]32OO4` (some centres undefined): the IC50 in the data set with Plasmodium falciparum [3] worked out at 0.59 nM.

Turning to `C[C@@H]1CC[C@H]2[C@@H](C)C(OCCN/C(=N/c3ccc(OC(F)(F)F)cc3)NCCOC3O[C@@H]4O[C@]5(C)CC[C@@H]6[C@@H](C)CC[C@H]([C@@H]3C)[C@]46OO5)O[C@H]3O[C@@]4(C)CC[C@@H]1[C@]32OO4` (some centres undefined), the values for the half-inhibitory concentration (IC50) with A549 and in the data set on HT-29 were 170 nM and 240 nM, respectively.

For `C[C@@H]1CC[C@H]2[C@@H](C)C(OCCN/C(=N/c3cccc(Br)c3)NCCOC3O[C@@H]4O[C@]5(C)CC[C@@H]6[C@@H](C)CC[C@H]([C@@H]3C)[C@]46OO5)O[C@H]3O[C@@]4(C)CC[C@@H]1[C@]32OO4` (some centres undefined), the IC50 in the data set with MDA-MB-231 is 1570 nM; in the data set with A549, 360 nM; in the data set with HT-29 it was 400 nM.

Regarding `C[C@@H]1CC[C@H]2[C@@H](C)C(OC/C=C\COC3O[C@H]4O[C@@]5(C)CC[C@H]6[C@H](C)CC[C@@H]([C@H]3C)[C@@]46OO5)O[C@H]3O[C@@]4(C)CC[C@@H]1[C@]32OO4` (some centres undefined), the IC50 with KB was determined as 320 nM.

On to `C[C@H]1[C@H](CCC(=O)c2ccc(C(=O)C[C@@H]3O[C@H]4O[C@@]5(C)CC[C@H]6[C@H](C)CC[C@@H]([C@H]3C)[C@@]46OO5)cc2)O[C@H]2O[C@@]3(C)CC[C@H]4[C@H](C)CC[C@@H]1[C@@]24OO3`, for which, in the data set on Plasmodium falciparum [2], the IC50 was found to be 1.9 nM.

Regarding `C[C@H]1[C@H](CC(=O)c2ccc(C(=O)CC[C@H]3O[C@H]4O[C@@]5(C)CC[C@H]6[C@H](C)CC[C@@H]([C@H]3C)[C@@]46OO5)cc2)O[C@H]2O[C@@]3(C)CC[C@H]4[C@H](C)CC[C@@H]1[C@@]24OO3`, the IC50 is 1.7 nM in the data set on Plasmodium falciparum [2] and 3.9 nM with Plasmodium falciparum [3].

With `COc1cc(OC)c(C2O[C@H]3O[C@@]4(C)CC[C@H]5[C@H](C)CC[C@@H]([C@H]2C)[C@@]35OO4)cc1C1O[C@H]2O[C@@]3(C)CC[C@H]4[C@H](C)CC[C@@H]([C@H]1C)[C@@]24OO3` (some centres undefined), the IC50 in the data set on Plasmodium falciparum [2] was found to be 1.3 nM.

For `CCC[C@@]1(C[C@@H]2C(=O)O[C@H]3O[C@@]4(C)CC[C@H]5[C@H](C)CC[C@@H]2[C@@]35OO4)O[C@H]2O[C@@]3(C)CC[C@H]4[C@H](C)CC[C@@H]([C@H]1C)[C@@]24OO3`, the CC50 in data set [4] was > 130000 nM.

Regarding `C[C@@H]1CC[C@H]2[C@@H](C)C(CC#Cc3ccc(C#CCC4O[C@H]5O[C@@]6(C)CC[C@H]7[C@H](C)CC[C@@H]([C@H]4C)[C@@]57OO6)cc3)O[C@H]3O[C@@]4(C)CC[C@@H]1[C@]32OO4` (some centres undefined), the IC50 in the data set on Plasmodium falciparum [2] came to 30 nM.

Take `C[C@@H]1CC[C@H]2[C@@H](C)C(OCCN/C(=N/c3cccc(F)c3)NCCOC3O[C@@H]4O[C@]5(C)CC[C@@H]6[C@@H](C)CC[C@H]([C@@H]3C)[C@]46OO5)O[C@H]3O[C@@]4(C)CC[C@@H]1[C@]32OO4` (some centres undefined): the IC50 in the data set with MDA-MB-231 is 1330 nM; in the data set with HT-29 it was 90 nM.

For the compound `C[C@@H]1CC[C@H]2[C@@H](C)C(/C=C\c3cccc(/C=C/C4O[C@H]5O[C@@]6(C)CC[C@H]7[C@H](C)CC[C@@H]([C@H]4C)[C@@]57OO6)c3)O[C@H]3O[C@@]4(C)CC[C@@H]1[C@]32OO4` (some centres undefined), the concentration for half-maximal inhibition (IC50) in the data set with Plasmodium falciparum [2] was 35 nM.

On to `CCCCCC[C@@]1(C[C@@H]2C(=O)O[C@H]3O[C@@]4(C)CC[C@H]5[C@H](C)CC[C@@H]2[C@@]35OO4)O[C@H]2O[C@@]3(C)CC[C@H]4[C@H](C)CC[C@@H]([C@H]1C)[C@@]24OO3`, for which the CC50 in data set [4] worked out at 2500 nM. In addition, the IC50 in the data set on KB stood at 4000 nM.

Turning to `CCCC[C@@]1(C[C@@H]2C(=O)O[C@H]3O[C@@]4(C)CC[C@H]5[C@H](C)CC[C@@H]2[C@@]35OO4)O[C@H]2O[C@@]3(C)CC[C@H]4[C@H](C)CC[C@@H]([C@H]1C)[C@@]24OO3`, the CC50 in data set [4] was > 130000 nM.

On to `C[C@@H]1CC[C@H]2[C@@H](C)C(CC(COC(=O)c3ccncc3)CC3O[C@H]4O[C@@]5(C)CC[C@H]6[C@H](C)CC[C@@H]([C@H]3C)[C@@]46OO5)O[C@H]3O[C@@]4(C)CC[C@@H]1[C@]32OO4` (some centres undefined), for which the IC50 in the data set with Plasmodium falciparum [3] is 1.7 nM.

With `C[C@@H]1CC[C@H]2[C@@H](C)C(CC(O)(CC3O[C@@H]4O[C@]5(C)CC[C@@H]6[C@@H](C)CC[C@H]([C@@H]3C)[C@]46OO5)c3ccc(C(=O)O)cc3)O[C@H]3O[C@@]4(C)CC[C@@H]1[C@]32OO4` (some centres undefined), in the data set on Plasmodium falciparum [3], the IC50 was determined as 2.1 nM.
